From US8796241B2, “Therapy of tumors and infectious agents deficient in methylthioadenosine phosphorylase” (priority 2007, dated 2014)

How the values were obtained:
[1] = tested on: MTAP-positive cells and cells lines; test: Applicants' tissue culture experiments on protection of MTAP-positive cells (summary statements); format: cell-based, human; mouse
[2] = tested on: MTAP(+) HF cells; test: Coulter counts of HF cell cultures; format: cell-based, human; details: for Coulter counts: x56 = cells/dish
Description: For adherent cell types (e.g., HF, A549, MCF7) cells were plated in 60 mm -diameter plastic tissue culture dishes and incubated at 37° C. in a humidified 5% CO2 atmosphere, in Dulbecco's Modified Eagle's Medium (DME) with 10% fetal bovine serum (FBS). At the start of an experiment, medium was replaced with DME and 10% dialyzed FBS.
(§1) For adherent cell types, cell numbers were determined periodically by releasing cells with trypsin (dead cells that were no longer adherent were removed by two prior rinses of the culture dish) and placing a portion of the resulting cell suspension in a Coulter counter. For cell types that grow in suspension, portions of the culture were counted directly, without trypsin treatment. Coulter counts of cells from each dish were done twice, and almost all experiments were done in duplicate. In the presentation of results, raw data for Coulter counts is given in some cases, while in others, counts have been rounded off to two to three significant figures. (Background Coulter counts—i.e., counts of diluent alone—were insignificant.)
Cell cultures were treated with MeP, with or without 5′-dAdo or MTA, for 4 days. The cell cultures were then changed to fresh medium, with the addition of 30 μM Ade to inhibit further action of the analog. Two days later cultures were trypsinized and a portion of the suspension was counted.
• A. F-Ade was added to cultures of HF cells, with varying amounts of 5′-dAdo. After 3 days, cell numbers were counted. • Initial cell count: 1,100 • After three days:
• Cultures of human fibroblasts were treated with DAP, 5′-dAdo, MTA, adenine, or MTX. Thymidine (15 μM) was added to all cultures. • Initial count was: 1807 • Counts, as raw data, after 3 days of incubation, are shown below: […]
• Human fibroblasts in culture were treated with 6-thioguanine (TG), 2,6-diaminopurine (DAP), or 5′-dAdo for 3 days. After trypsinization, cell numbers were counted. • Initial cell number: 296,000

[3] = tested on: MTAP(−) A549 cells; test: Clonogenic assay of A549 cells; format: cell-based, human; details: for potentiation of killing of A549 cells by DAP: Example 9
Description: (§2) Cell viability of adherent cell types was measured by clonogenic assay as follows: after releasing cells with trypsin and removing a portion of the cell suspension for Coulter counting, the remainder of the cell suspension was plated in serial dilutions in growth medium, without drugs. After a period sufficient for clones to reach a size visible by eye (usually 2 to 3 weeks), clones were stained with crystal violet in a saline/methanol solution. Dishes that had fewer than 100 clones were deemed suitable for counting. From these counts and from the dilution factors, the approximate number of viable cells, in the parent treatment dishes, was calculated. […] In clonogenic assays, clone size was often variable, especially after treatment with toxic drugs. Moreover, many of the very small clones may have arisen from cells detached during the weeks of incubation. […] Cloning efficiency for healthy, growing A549 cells was about 50%; for HF cells, efficiency was quite variable, ranging from 25 to 75% (perhaps because the HF cell stock varied, from experiment to experiment, in passage number).
A549 cells were incubated for 4 days with additions shown below, and viable cells measured by clonogenic assay. (Results shown are approximate; see Methods) Cell count in dish at start: 40,000
• MTAP(−) A549 lung tumor cell cultures were treated with F-Ade, with or without MTA, 5′-dAdo, or adenine (Ade), for three days. Coulter counts of cells, and viable cells as determined by clonogenic assay, are shown below: • Initial cell number: 10,340*
• A549 cell cultures were treated with DAP, with or without 5′-dAdo or adenine, for three days. After trypsinization, one-fourth of the cell suspension was counted, and raw data is shown below, with duplicate counts for each sample. The cell suspension was also serially diluted for clonogenic assay. • Counts at start of experiment: Dish one: 36,480; 39,160; Dish two: 52,680; 51,360. • Initial viable cells by clonogenic assay: 180,000.
• Cell cultures were treated with MTX or alanosine for one day. DAP was then added and 3 days later, cells were trypsinized and serially diluted for clonogenic assay. Results are shown below: • Initial viable cells: 146,000
• A549 cells were plated, and after they had adhered to the substrate, medium was changed to methionine-free medium with 10% dialyzed serum. L-ethionine (Eth) and MTA were added, and after 4 days, cell cultures were trypsinized and serially diluted for clonogenic assay. • Initial number of viable cells: 160,000*
• A549 cultures were treated with 6-thioguanine (TG) or 2,6,diaminopurine (DAP), or both, for 3 days. • Initial viable cells: 275,000 • After 3 days: […]

[4] = tested on: MTAP-negative cell lines; test: Applicants' tissue culture experiments on MTAP-negative cell lines (summary statements); format: cell-based, human; mouse; details: co-administered inhibitor of de novo purine synthesis
[5] = tested on: MTAP(+) HF cells; test: Clonogenic assay of HF cells; format: cell-based, human
Description: as §2
• B. F-Ade was added to cultures of MTAP(+) HF cells, with or without 5′-dAdo, for 3 days. Cultures were then trypsinized and serially diluted for clonogenic assay. • Initial number of viable cells per dish: 45,000 • Viable cells after 3 days shown below:
• HF cells were plated, and after they had adhered to the substrate, medium was changed to methionine-free medium, with 10% dialyzed serum. • Initial Coulter count: 73,000*; viable cells: 88,000 • After 3 days in methionine-free medium, with or without L-ethionine (Eth) or MTA: […]

[6] = tested on: MTAP(+) ML-1 cells; test: Coulter counts of ML-1 suspension cultures; format: cell-based; details: for Increase in cell number/ml, No 5′-dAdo: 2 days, FU 3 μM, TG 20 μM, DAP 50 μM where present, initial Coulter count/ml 308,000; for inhibition of growth of MTAP(+) ML-1 cells: Example 14
Description: (§3) For cell types that grow in suspension (e.g., ML-1, HL-60, K-562) medium was RPMI-1640 with 10% FBS (undialyzed).
as §1
(§4) For cells that grow in suspension, the effect of treatments was assessed solely by changes in Coulter count.
• ML-1 cells were incubated in RPMI 1640 with 10% FBS with 5′-dAdo (60 μM) for 6 hours. 5-fluorouracil (FU), 6-thioguanine (TG), or 2,6-diaminopurine (DAP) were then added, and after 2 additional days, 0.5 ml was taken for Coulter counts. Initial Coulter count/ml: 308,000

[7] = tested on: MTAP(+) HT29 colon carcinoma cells; test: Coulter counts of HT29 cultures; format: cell-based, human; details: 4 days, 5′-dAdo 60 μM added one day before, where present, initial count 46,000, x4 = cells/dish
Description: as §1
• 5′-dAdo was added to cultures of MTAP(+) HT29 colon carcinoma cells for one day. 5-fluorouracil (FU) was then added and 4 days later cultures were trypsinized, thoroughly dispersed into mostly single cells by vigorous pipetting, and counted. • Initial Coulter count at time of addition of FU: 46,000

[8] = tested on: MTAP(−) HL-60 cells; test: Coulter counts of HL-60 suspension cultures; format: cell-based; details: six days, 5′-dAdo or Ade 60 μM added 3 hours before, where present, initial cell number/ml 8,160
Description: as §3, §1, §4
• HL-60 cells were grown in RPMI 1640 with 10% FBS. 5′-dAdo, adenine, or neither were added, and after 3 hours, 5-fluorouracil (FU) was added to selected dishes. Six days later, cell numbers were assessed in a Coulter counter. • Initial cell number/ml: 8,160

[9] = tested on: human and mouse tumor cells; test: Killing of tumor cells by adenine analogs (Applicants' findings, no method given); format: cell-based
[10] = tested on: MTAP(+) hematopoietic cell progenitors; test: Assay of colony-forming cells from mouse bone marrow; format: cell-based
Description: Method: The procedure for assay of colony-forming cells from mouse bone marrow was similar to methods described in the literature (see e.g., B. A. Teicher et al, Cancer Research, 47:513-518, 1987). In brief, cells were flushed from the femurs of Swiss mice, counted, and seeded into six-well tissue culture plates with supplemented McCoy's 5A medium, 15% FBS, 10 to 20% L929-cell conditioned medium as a source of colony-stimulating activity (L929 is MTAP-negative), 0.3% agar, and penicillin/streptomycin (op. cit. B. A. Teicher et al). Cells were seeded at two different densities: 50,000 and 250,000 cells per well. Control wells contained either no drugs, or adenine at 15 or 30 μM, or 5′-deoxyadenosine (5′-dAdo) at 15, 30, or 45 μM. Treatment wells contained 6-methylpurine (MeP) at 5 or 15 μM, 5′-deoxyadenosine (5′-dAdo) at 15 or 30 μM, and adenine at 15 or 30 μM, in various combinations. After eight days of incubation at 37° C. in a humidified 5% CO2 atmosphere, wells were fixed by the addition of 1 ml of 5% glutaraldehyde. Photographs were taken of a randomly selected portion of each well, as viewed (at fixed magnification) through a Nikon inverted microscope equipped with a camera.

[11] = MTX 1 μM or alanosine 3 μM for one day, then DAP 40 μM, 3 days (where present), initial viable cells 146,000

In the case of Nc1nc2nn[nH]c2c(=O)[nH]1 [8-azaguanine], the “protection of MTAP-positive cells, but not MTAP-negative cells, from the toxicity of the nucleobase analog” value [1] is reported as “selectively protected”.
With Nc1ncnc2nc[nH]c12 [Ade, adenine] the “blocking of DAP toxicity in HF cells” value ([2]; Example 8) was “blocked”, the “blocking of MeP toxicity in A549 cells” value ([3]; 10 μM MeP) was “blocked” and the “blocking of DAP toxicity in A549 cells” value ([3]; 100 μM DAP, Example 7) was “did”. The “blocking of F-Ade toxicity in A549 cells” value ([3]; 1 to 2 μM F-Ade) was “blocked”.
With N[C@@H](CN(O)N=O)C(=O)O [Alanosine, alanosine] the “potentiation of killing of A549 cells by DAP” value [3] was “strongly potentiated”, the “Viable Cells” value [3, 11] was 118,000 and the “potentiation of selective killing of MTAP-negative cells by adenine and methionine antagonists” value [4] was “potentiated”.
CCSCC[C@H](N)C(=O)O [Eth, ethionine] was tested, and the “toxicity to HF cells” value ([5]; 40 μM L-ethionine, methionine-free medium) was “very toxic”, the “Viable Cells” value ([5]; 3 days in methionine-free medium, Eth 40 μM, MTA 15 μM where present, initial viable cells 88,000) was 1,600 and the “Viable Cells” value ([3]; 4 days, methionine-free medium, Eth 40 μM, MTA 30 μM where present, initial viable cells 160,000) was 24,000. The “Viable Cells” value ([3]; 4 days, methionine-free medium, Eth 80 μM, MTA 30 μM where present, initial viable cells 160,000) was 5,000.
With O=c1[nH]cc(F)c(=O)[nH]1 [FU, 5-fluorouracil] the “Increase in cell number/ml, No 5′-dAdo” value [6] was 436,000 /ml, the “inhibition of growth of MTAP(+) ML-1 cells” value [6] was “inhibited growth” and the Coulter counts ([7]; FU 3 μM) was 65,300. For the same compound, the Coulter counts ([7]; FU 10 μM) was 36,600, the Coulter counts ([7]; FU 30 μM) was 25,500 and the “protection of MTAP-positive cells, but not MTAP-negative cells, from the toxicity of the nucleobase analog” value [1] was “selectively protected”. For the same compound, the Coulter counts/ml ([8]; FU 10 μM) was 125,200 counts/ml and the Coulter counts/ml ([8]; FU 30 μM) was 62,400 counts/ml.
With CN(Cc1cnc2nc(N)nc(N)c2n1)c1ccc(C(=O)N[C@@H](CCC(=O)O)C(=O)O)cc1 [MTX, methotrexate] the “Coulter counts” value ([2]; 3 days, MTX 10 μM, DAP 100 μM, 5′-dAdo, MTA or Ade 15 μM where present, thymidine 15 μM in all cultures, initial count 1807) was 3,455, the “potentiation of killing of A549 cells by DAP” value [3] was “strongly potentiated” and the “Viable Cells” value [3, 11] was 89,000. For the same compound, the “potentiation of selective killing of MTAP-negative cells by adenine and methionine antagonists” value [4] was “potentiated”.
For Cc1ncnc2nc[nH]c12 [MeP, 6-methylpurine], the Coulter counts ([2]; MeP 5 μM, 5′-dAdo 20 μM or MTA 10 μM where present, 4 days, then fresh medium with 30 μM Ade, 2 days, initial count 1,157) was 2,885, the “toxicity to HF cells” value ([2]; MeP 5-10 μM, Example 3) was “strongly toxic” and the “killing of human and mouse tumor cells” value [9] was “very rapid and potent killing”. For the same compound, the “toxicity to colony-forming murine hematopoietic progenitors” value ([10]; MeP at doses of 5 and 15 μM) was “highly toxic”, the “colonies observed (each field of view)” value ([10]; wells seeded at 250,000 cells/well, eight days, MeP 5 or 15 μM, adenine or 5′-dAdo 15 or 30 μM where present, control approximately 40-50 colonies) was “no colonies” and the “toxicity to A549 cells, clonogenic assay” value ([3]; 10 μM MeP) was “highly toxic”. For the same compound, the “Viable Cells” value ([3]; 4 days, MeP 10 μM, MTA, 5′-dAdo or Ade 20 μM where present, cell count at start 40,000, approximate) was 0.
For Nc1nc2nc[nH]c2c(=S)[nH]1 [TG, 6-thioguanine], the “Increase in cell number/ml, No 5′-dAdo” value [6] was 114,000 /ml, the “inhibition of growth of MTAP(+) ML-1 cells” value [6] was “inhibited growth” and the Increase in cells/dish ([2]; 3 days, TG 40 μM, DAP 50 μM, 5′-dAdo 60 μM where present, initial cell number 296,000) was 72,000 cells/dish. The “inhibition of HF cell growth” value ([2]; Example 15) was “inhibited”, the “protection of MTAP-positive cells, but not MTAP-negative cells, from the toxicity of the nucleobase analog” value [1] was “selectively protected” and the “Viable Cells” value ([3]; 3 days, TG 40 μM, DAP 50 μM where present, initial viable cells 275,000) was 200,000.
For O=CN(O)CC(=O)O [hadacidin], the “potentiation of selective killing of MTAP-negative cells by adenine and methionine antagonists” value [4] was “potentiated”.
